Reference: ChEMBL document CHEMBL1133132, “Cell adhesion antagonists: synthesis and evaluation of a novel series of phenylalanine based inhibitors” (Bioorg Med Chem Lett, 2000)

molecular target: T1, Integrin alpha-4/beta-7 (Homo sapiens, UniProt P13612+P26010); experiment: Inhibition of alpha-4 beta7/MAdCAM mediated cell adhesion was evaluated using B-cell lymphoma RPMI 8866 cells; assay type: functional, cell-based
T1 sequence (P13612 whole entry): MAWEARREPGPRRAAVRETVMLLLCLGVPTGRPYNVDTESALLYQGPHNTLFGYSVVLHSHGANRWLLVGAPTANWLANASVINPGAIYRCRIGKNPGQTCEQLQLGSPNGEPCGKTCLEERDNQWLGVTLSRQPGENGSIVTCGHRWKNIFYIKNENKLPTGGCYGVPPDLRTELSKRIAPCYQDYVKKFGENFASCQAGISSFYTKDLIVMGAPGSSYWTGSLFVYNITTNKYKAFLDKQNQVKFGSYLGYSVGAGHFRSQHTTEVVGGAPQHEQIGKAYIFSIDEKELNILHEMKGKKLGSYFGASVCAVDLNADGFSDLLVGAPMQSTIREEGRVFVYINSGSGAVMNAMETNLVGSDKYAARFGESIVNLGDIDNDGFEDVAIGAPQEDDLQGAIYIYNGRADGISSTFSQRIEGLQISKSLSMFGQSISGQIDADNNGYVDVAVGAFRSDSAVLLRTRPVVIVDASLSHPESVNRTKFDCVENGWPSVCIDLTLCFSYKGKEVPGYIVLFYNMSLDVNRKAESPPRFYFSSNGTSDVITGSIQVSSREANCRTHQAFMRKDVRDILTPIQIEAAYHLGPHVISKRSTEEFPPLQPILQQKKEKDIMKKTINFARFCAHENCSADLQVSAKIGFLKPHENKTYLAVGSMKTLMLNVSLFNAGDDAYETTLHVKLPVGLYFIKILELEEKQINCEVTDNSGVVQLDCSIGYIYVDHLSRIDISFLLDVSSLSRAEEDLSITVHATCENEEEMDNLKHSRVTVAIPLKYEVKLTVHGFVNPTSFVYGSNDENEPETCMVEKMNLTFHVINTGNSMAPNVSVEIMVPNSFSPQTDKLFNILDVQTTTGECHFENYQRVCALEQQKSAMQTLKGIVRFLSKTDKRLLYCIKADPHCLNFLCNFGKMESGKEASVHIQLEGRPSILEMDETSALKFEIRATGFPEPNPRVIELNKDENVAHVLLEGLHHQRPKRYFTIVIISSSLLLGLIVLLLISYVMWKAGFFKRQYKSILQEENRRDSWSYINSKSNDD
T1 sequence (P26010 whole entry): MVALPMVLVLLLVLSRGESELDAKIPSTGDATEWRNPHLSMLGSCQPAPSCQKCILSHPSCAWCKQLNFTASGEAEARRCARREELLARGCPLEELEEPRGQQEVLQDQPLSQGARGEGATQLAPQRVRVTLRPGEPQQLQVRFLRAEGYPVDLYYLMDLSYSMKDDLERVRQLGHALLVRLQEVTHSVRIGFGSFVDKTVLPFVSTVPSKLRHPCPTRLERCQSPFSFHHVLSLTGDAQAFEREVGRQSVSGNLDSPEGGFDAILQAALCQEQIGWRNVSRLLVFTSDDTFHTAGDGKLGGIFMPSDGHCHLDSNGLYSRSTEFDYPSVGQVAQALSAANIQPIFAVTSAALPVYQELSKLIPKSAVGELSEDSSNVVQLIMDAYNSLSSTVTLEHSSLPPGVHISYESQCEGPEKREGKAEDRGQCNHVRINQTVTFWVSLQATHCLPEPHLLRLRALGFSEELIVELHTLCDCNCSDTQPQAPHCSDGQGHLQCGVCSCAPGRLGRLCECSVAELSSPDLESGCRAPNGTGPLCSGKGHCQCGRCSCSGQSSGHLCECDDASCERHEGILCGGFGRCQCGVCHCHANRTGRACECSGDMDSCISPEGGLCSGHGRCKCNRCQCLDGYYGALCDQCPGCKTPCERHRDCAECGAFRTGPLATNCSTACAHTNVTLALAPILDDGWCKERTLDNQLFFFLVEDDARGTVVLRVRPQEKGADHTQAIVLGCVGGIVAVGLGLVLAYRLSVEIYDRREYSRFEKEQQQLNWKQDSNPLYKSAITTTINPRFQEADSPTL

Structure (SMILES) | IC50 [µM]
CC(C)(C)OC(=O)[C@H](Cc1ccccc1)NCc1ccccc1F | 117
CC(C)(C)OC(=O)[C@H](Cc1ccccc1)NCc1cccc(F)c1 | 176
CC(C)(C)OC(=O)[C@H](Cc1ccccc1)NCc1ccccc1O | 60
CC(C)(C)OC(=O)[C@H](Cc1ccccc1)NCc1ccccc1 | 100
CC(C)(C)OC(=O)[C@H](Cc1ccccc1)NCc1cc([N+](=O)[O-])ccc1O | 30
COc1ccccc1CN[C@@H](Cc1ccccc1)C(=O)OC(C)(C)C | 50
COc1ccc(CN[C@@H](Cc2ccccc2)C(=O)OC(C)(C)C)cc1 | 122
CC(C)(C)COC(=O)[C@H](Cc1ccccc1)NCc1cc([N+](=O)[O-])ccc1O | 9

Now from value to molecule:

IC50 [µM] | Structure (SMILES)
54 | CC(C)(C)OC(=O)[C@H](Cc1ccccc1)NCc1cccc(O)c1
7 | O=C(OCc1ccccc1)[C@H](Cc1ccccc1)NCc1cc([N+](=O)[O-])ccc1O
122 | COc1cccc(CN[C@@H](Cc2ccccc2)C(=O)OC(C)(C)C)c1
85 | CC(C)(C)OC(=O)[C@H](Cc1ccccc1)NCc1ccc(O)cc1
82 | C=C(C)CCOC(=O)[C@H](Cc1ccccc1)NCc1cc([N+](=O)[O-])ccc1O
6 | CC(C)CCNC(=O)[C@H](Cc1ccccc1)NCc1cc([N+](=O)[O-])ccc1O
7 | CC(C)CCOC(=O)[C@H](Cc1ccccc1)NCc1cc([N+](=O)[O-])ccc1O
121 | CC(C)(C)OC(=O)[C@H](Cc1ccccc1)NCc1ccc(F)cc1

molecular target: T1, Integrin alpha-4/beta-7; experiment: Inhibition of alpha-4 beta7/MAdCAM mediated cell adhesion was evaluated using B-cell lymphoma RPMI 8866 cells; In active; assay type: functional, cell-based

Structure (SMILES) | IC50
CC(C)(C)OC(=O)[C@H](Cc1ccccc1)NCc1ccc([N+](=O)[O-])c(O)c1 | Not Active
CC(C)CCNC(=O)[C@@H](Cc1ccccc1)NCc1cc([N+](=O)[O-])ccc1O | Not Active
